Structures can show the parent of a compound that is named as a salt. ± gives the standard deviation of the averaged measurements.
System: G401
Assay: relative viability vs DMSO control (72 h) (fraction); higher = more viable cells
How it was run: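 After seeding at densities set for 80–90% confluence in 384-well plates, sarcoma cell lines waited 24 h before 2.5 µl of serially diluted compound was added. Source plates held 10 mM down to 0.0002 mM. Plates were incubated 72 h at 37 °C with 5% CO2, with 0.1% DMSO vehicle and a 5 µM positive control, and relative viability was taken from ATPLite as percent growth averaged over up to triplicate wells, with 1 set as full and 0 as none.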

Row | SMILES | relative viability (0.00017 µM) | relative viability (0.00051 µM) | relative viability (0.00152 µM) | relative viability (0.00457 µM) | relative viability (0.01372 µM) | relative viability (0.04115 µM) | relative viability (0.1235 µM) | relative viability (0.3704 µM) | relative viability (1.111 µM) | relative viability (3.333 µM) | relative viability (10 µM)
1 | O=C(Nc1cnn2ccc(N3CCC[C@@H]3c3cc(F)ccc3F)nc12)N1CC[C@H](O)C1 [Larotrectinib] | 1.032 ± 0.0041 | 1.03 ± 0.016 | 1.021 ± 0.0029 | 1.04 ± 0.033 | 1.04 ± 0.03 | 1.01 ± 0.019 | 1.02 ± 0.028 | 1 ± 0.014 | 1 ± 0.048 | 0.97 ± 0.025 | 0.916 ± 0.034
2 | C[C@@H]1COCCN1c1cc(-c2ccnn2C)c2ccnc(-c3ccn[nH]3)c2n1 | 0.996 ± 0.018 | 0.9815 ± 0.0068 | 1 ± 0.011 | 1.01 ± 0.023 | 0.997 ± 0.02 | 0.915 ± 0.026 | 0.803 ± 0.043 | 0.675 ± 0.0044 | 0.598 ± 0.0066 | 0.517 ± 0.012 | 0.486 ± 0.012
3 | CC(C)N1CCN(Cc2cnc(-c3cc(-c4cccc5[nH]ccc45)cc4[nH]ncc34)o2)CC1 [Nemiralisib] | 0.962 ± 0.043 | 0.933 ± 0.035 | 0.883 ± 0.015 | 0.921 ± 0.033 | 0.904 ± 0.035 | 0.911 ± 0.048 | 0.916 ± 0.013 | 0.877 ± 0.01 | 0.833 ± 0.021 | 0.735 ± 0.026 | 0.609 ± 0.012
4 | COc1cccc2c1C(=O)c1c(O)c3c(c(O)c1C2=O)C[C@@](O)(C(=O)CO)C[C@@H]3O[C@H]1C[C@H](N)[C@H](O)[C@H](C)O1 [Doxorubicin Hydrochloride] | 1.03 ± 0.011 | 1.02 ± 0.018 | 1 ± 0.041 | 0.937 ± 0.021 | 0.8493 ± 0.0066 | 0.681 ± 0.019 | 0.476 ± 0.041 | 0.079 ± 0.017 | 0.0407 ± 0.0027 | 0.096 ± 0.0082 | 0.101 ± 0.0054
5 | Nc1cc(C(F)(F)F)c(-c2cc(N3CCOCC3)nc(N3CCOCC3)n2)cn1 [Buparlisib] | 0.957 ± 0.011 | 0.983 ± 0.013 | 0.932 ± 0.024 | 0.966 ± 0.022 | 1 ± 0.027 | 0.928 ± 0.041 | 0.86 ± 0.027 | 0.767 ± 0.037 | 0.594 ± 0.014 | 0.304 ± 0.005 | 0.237 ± 0.0068
6 | Cc1cc(Nc2ncnc3ccc(NC4=NC(C)(C)CO4)cc23)ccc1Oc1ccn2ncnc2c1 [Tucatinib] | 1.03 ± 0.042 | 1.04 ± 0.039 | 1.02 ± 0.04 | 1.02 ± 0.037 | 1.01 ± 0.037 | 0.985 ± 0.036 | 1.02 ± 0.026 | 1.01 ± 0.026 | 1.01 ± 0.035 | 0.984 ± 0.025 | 0.985 ± 0.031
7 | Cc1nc(-c2cn3c(n2)-c2ccc(-c4cnn(C(C)(C)C(N)=O)c4)cc2OCC3)n(C(C)C)n1 [Taselisib] | 0.995 ± 0.022 | 0.968 ± 0.045 | 0.969 ± 0.032 | 0.923 ± 0.011 | 0.866 ± 0.019 | 0.7976 ± 0.0064 | 0.68 ± 0.03 | 0.592 ± 0.027 | 0.499 ± 0.021 | 0.439 ± 0.019 | 0.347 ± 0.018
8 | CN1CCC(COc2cnc(-c3cccc(Cn4nc(-c5cccc(C#N)c5)ccc4=O)c3)nc2)CC1 [Tepotinib] | 1.02 ± 0.014 | 1.02 ± 0.015 | 1.012 ± 0.01 | 1.003 ± 0.0083 | 1.04 ± 0.018 | 1.04 ± 0.057 | 1.02 ± 0.013 | 1.01 ± 0.029 | 1 ± 0.015 | 0.9287 ± 0.0054 | 0.787 ± 0.02
9 | CNC(=O)c1cc(Oc2ccc(NC(=O)Nc3ccc(Cl)c(C(F)(F)F)c3)c(F)c2)ccn1 [Regorafenib] | 1.05 ± 0.058 | 1.06 ± 0.077 | 1.09 ± 0.071 | 1.07 ± 0.025 | 1.07 ± 0.032 | 1.07 ± 0.071 | 1.02 ± 0.058 | 0.888 ± 0.088 | 0.821 ± 0.056 | 0.609 ± 0.062 | 0.431 ± 0.029
10 | CCCS(=O)(=O)Nc1ccc(F)c(C(=O)c2c[nH]c3ncc(-c4ccc(Cl)cc4)cc23)c1F [Vemurafenib] | 1.01 ± 0.0022 | 1.02 ± 0.016 | 1.01 ± 0.017 | 1.004 ± 0.01 | 1.01 ± 0.024 | 1 ± 0.03 | 1.02 ± 0.0078 | 1.031 ± 0.0097 | 1.01 ± 0.011 | 1.01 ± 0.021 | 0.753 ± 0.023
11 | COc1c(OCCCN2CCOCC2)ccc2c1N=C(NC(=O)c1cnc(N)nc1)N1CCN=C21 [Copanlisib] | 1.024 ± 0.0087 | 1 ± 0.024 | 0.959 ± 0.039 | 0.7934 ± 0.0059 | 0.702 ± 0.018 | 0.582 ± 0.033 | 0.537 ± 0.037 | 0.499 ± 0.043 | 0.476 ± 0.047 | 0.468 ± 0.02 | 0.477 ± 0.044
12 | CC(=O)Nc1cccc(-n2c(=O)n(C3CC3)c(=O)c3c(Nc4ccc(I)cc4F)n(C)c(=O)c(C)c32)c1 [Trametinib] | 1.01 ± 0.054 | 1 ± 0.019 | 0.952 ± 0.018 | 0.906 ± 0.029 | 0.845 ± 0.032 | 0.765 ± 0.017 | 0.627 ± 0.011 | 0.38 ± 0.027 | 0.184 ± 0.0096 | 0.144 ± 0.014 | 0.12 ± 0.012
13 | COCc1c(-c2cc3cc(C)cc(OC)c3s2)c2c(N)ncnn2c1CN1CCNC(=O)C1 [Rogaratinib] | 1.05 ± 0.015 | 1.06 ± 0.037 | 1.02 ± 0.031 | 1.01 ± 0.011 | 1.018 ± 0.0054 | 0.967 ± 0.038 | 0.8878 ± 0.0073 | 0.68 ± 0.015 | 0.592 ± 0.024 | 0.532 ± 0.043 | 0.375 ± 0.0068
14 | COc1cc2/c(=N/c3ccc(Br)cc3F)nc[nH]c2cc1OCC1CCN(C)CC1 [Vandetanib] | 0.983 ± 0.019 | 0.98623 ± 0.00074 | 0.989 ± 0.019 | 0.99 ± 0.028 | 0.993 ± 0.025 | 0.968 ± 0.025 | 0.971 ± 0.015 | 0.988 ± 0.033 | 0.87 ± 0.013 | 0.736 ± 0.0092 | 0.0218 ± 0.0004
15 | CNC(=O)c1ccc(-c2cnc3ncc(Cc4ccc5ncccc5c4)n3n2)cc1F [Capmatinib] | 1.01 ± 0.023 | 0.988 ± 0.024 | 1.03 ± 0.027 | 1.04 ± 0.019 | 0.977 ± 0.03 | 1.01 ± 0.058 | 0.9706 ± 0.0066 | 1.02 ± 0.0027 | 0.981 ± 0.01 | 0.929 ± 0.012 | 0.877 ± 0.053
16 | CCN1CCN(Cc2ccc(Nc3ncc(F)c(-c4cc(F)c5nc(C)n(C(C)C)c5c4)n3)nc2)CC1 [Abemaciclib] | 0.985 ± 0.03 | 0.964 ± 0.018 | 0.924 ± 0.048 | 0.922 ± 0.061 | 0.857 ± 0.051 | 0.822 ± 0.037 | 0.796 ± 0.044 | 0.786 ± 0.048 | 0.758 ± 0.017 | 0.746 ± 0.037 | 0.6941 ± 0.0055
17 | C=CC(=O)N1CCC[C@@H](n2nc(-c3ccc(Oc4ccccc4)cc3)c3c(N)ncnc32)C1 [Ibrutinib] | 1.03 ± 0.025 | 1.03 ± 0.095 | 1.03 ± 0.037 | 1.01 ± 0.0057 | 1.01 ± 0.025 | 1.05 ± 0.013 | 0.998 ± 0.072 | 0.995 ± 0.05 | 1.02 ± 0.013 | 0.922 ± 0.045 | 0.668 ± 0.049
18 | Cn1cnc2c(F)c(Nc3ccc(Br)cc3F)c(C(=O)NOCCO)cc21 [Binimetinib] | 1.01 ± 0.025 | 1.05 ± 0.019 | 1.03 ± 0.033 | 1.01 ± 0.011 | 0.983 ± 0.023 | 0.904 ± 0.0051 | 0.886 ± 0.029 | 0.859 ± 0.021 | 0.782 ± 0.02 | 0.716 ± 0.046 | 0.584 ± 0.038

— the supplement of paper PMC10883282
